Measurements from PubChem BioAssay (NCI).
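Cells were grown in 96-well plates and exposed to each compound for 48 hours at five concentrations; endpoints were interpolated linearly between bracketing concentrations, or set to the highest concentration if not reached. GI50 = concentration required for 50% inhibition of growth. TGI marks complete inhibition of growth.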

Columns and labels:
Assay in all cases: growth of human tumour cells (NCI), 48 h
[1] = test system: 786-0 renal
[2] = test system: A498 renal
[3] = test system: A549 NSCLC
[4] = test system: ACHN renal
[5] = test system: BT-549 breast
[6] = test system: CAKI-1 renal
[7] = test system: CCRF-CEM leukemia
[8] = test system: COLO 205 colon
[9] = test system: DU-145 prostate
[10] = test system: EKVX NSCLC
[11] = test system: HCC-2998 colon
[12] = test system: HCT-116 colon
[13] = test system: HCT-15 colon
[14] = test system: HL-60(TB) leukemia
[15] = test system: HOP-62 NSCLC
[16] = test system: HOP-92 NSCLC
[17] = test system: HS 578T breast
[18] = test system: HT29 colon
[19] = test system: IGROV1 ovarian
[20] = test system: K-562 leukemia
[21] = test system: KM12 colon
[22] = test system: LOX IMVI melanoma
[23] = test system: M14 melanoma
[24] = test system: MALME-3M melanoma
[25] = test system: MCF7 breast
[26] = test system: MDA-MB-231 breast
[27] = test system: MDA-MB-435
[28] = test system: MOLT-4 leukemia
[29] = test system: NCI-H226 lung
[30] = test system: NCI-H460 lung
[31] = test system: NCI-H522 lung
[32] = test system: NCI/ADR-RES ovarian
[33] = test system: OVCAR-3 ovarian
[34] = test system: OVCAR-4 ovarian
[35] = test system: OVCAR-5 ovarian
[36] = test system: OVCAR-8 ovarian
[37] = test system: PC-3 prostate
[38] = test system: RPMI-8226 leukemia
[39] = test system: RXF 393 renal
[40] = test system: SF-268 CNS
[41] = test system: SF-295 CNS
[42] = test system: SF-539 CNS
[43] = test system: SK-MEL-2 melanoma
[44] = test system: SK-MEL-28 melanoma
[45] = test system: SK-MEL-5 melanoma
[46] = test system: SK-OV-3 ovarian
[47] = test system: SN12C renal
[48] = test system: SNB-19 CNS
[49] = test system: SNB-75 CNS
[50] = test system: SR leukemia
[51] = test system: SW-620 colon
[52] = test system: T-47D breast
[53] = test system: TK-10 renal
[54] = test system: U251 CNS
[55] = test system: UACC-257 melanoma
[56] = test system: UACC-62 melanoma
[57] = test system: UO-31 renal

## O=C(CN1CCOCC1)NNc1ncnc2ccccc12
[1]
  GI50: 2.23 µM
  TGI: 5.17 µM
[2]
  GI50: > 100 µM
  TGI: > 100 µM
[3]
  GI50: 17.4 µM
  TGI: 34.7 µM
[4]
  GI50: 1.82 µM
  TGI: 3.21 µM
[5]
  GI50: 13.8 µM
  TGI: 28 µM
[6]
  GI50: 2.76 µM
[7]
  GI50: 3.34 µM
  TGI: 71 µM
[8]
  GI50: 2.42 µM
  TGI: 5.37 µM
[9]
  GI50: 17.4 µM
  TGI: 32.3 µM
[10]
  GI50: 14.2 µM
  TGI: 28 µM
[11]
  GI50: 16.9 µM
  TGI: 31.4 µM
[12]
  GI50: 3.14 µM
  TGI: 12.3 µM
[13]
  GI50: 11.9 µM
  TGI: 26.4 µM
[14]
  GI50: 5.17 µM
  TGI: 26.2 µM
[15]
  GI50: 17.9 µM
  TGI: 32.9 µM
[16]
  GI50: 13.3 µM
  TGI: 27.1 µM
[17]
  GI50: 20.6 µM
  TGI: 64.6 µM
[18]
  GI50: 15.6 µM
  TGI: 33.7 µM
[19]
  GI50: 17 µM
  TGI: 36.3 µM
[20]
  GI50: 3.18 µM
  TGI: 12.9 µM
[21]
  GI50: 18.7 µM
  TGI: 41.4 µM
[22]
  GI50: 1.31 µM
  TGI: 11.2 µM
[23]
  GI50: 10.1 µM
  TGI: 25.2 µM
[24]
  GI50: 1.74 µM
  TGI: 3.52 µM
[25]
  GI50: 4.33 µM
  TGI: 21.9 µM
[26]
  GI50: 14.4 µM
  TGI: 29.6 µM
[27]
  GI50: 13.7 µM
  TGI: 27 µM
[28]
  GI50: 15.6 µM
  TGI: 56.9 µM
[29]
  GI50: 15.8 µM
  TGI: 39.7 µM
[30]
  GI50: 19.1 µM
  TGI: 38.9 µM
[31]
  GI50: 1.41 µM
  TGI: 2.92 µM
[32]
  GI50: 20.6 µM
  TGI: 50.2 µM
[33]
  GI50: 3.78 µM
  TGI: 14.1 µM
[34]
  GI50: 1.83 µM
  TGI: 3.85 µM
[35]
  GI50: 12.9 µM
  TGI: 25.9 µM
[36]
  GI50: 17.1 µM
  TGI: 33.1 µM
[37]
  GI50: 14.7 µM
  TGI: 30.4 µM
[38]
  GI50: 16.9 µM
  TGI: 46.6 µM
[39]
  GI50: 2.29 µM
  TGI: 6.12 µM
[40]
  GI50: 3.95 µM
  TGI: 18.5 µM
[41]
  GI50: 19.5 µM
  TGI: 34.4 µM
[42]
  GI50: 13.2 µM
  TGI: 26 µM
[43]
  GI50: 15.6 µM
  TGI: 30.5 µM
[44]
  GI50: 12.2 µM
  TGI: 24.5 µM
[45]
  GI50: 18 µM
  TGI: 33.3 µM
[46]
  GI50: 16.3 µM
  TGI: 30.1 µM
[47]
  GI50: 14.9 µM
  TGI: 28.6 µM
[48]
  GI50: 16.2 µM
  TGI: 30.7 µM
[49]
  GI50: 16 µM
  TGI: 30 µM
[50]
  GI50: 15.7 µM
  TGI: 54.7 µM
[51]
  GI50: 2.48 µM
  TGI: 6.47 µM
[52]
  GI50: 4.1 µM
  TGI: 19.7 µM
[53]
  GI50: 21.5 µM
  TGI: 36.3 µM
[54]
  GI50: 13.9 µM
  TGI: 27.5 µM
[55]
  GI50: 14.1 µM
  TGI: 28 µM
[56]
  GI50: 13.7 µM
  TGI: 27.2 µM
[57]
  GI50: 13.3 µM
  TGI: 26.1 µM
